Data on 34 molecules can be found in US9580449B2, “Compositions and methods for the production of pyrimidine and pyridine compounds with BTK inhibitory activity” (Merck Patent GmbH, priority 2011, dated 2017).

The subject of one assay is PBMC. The assay can be described thus: Time Dependent PBMC IC50 assay. The assay is classed as cell-based. How it is done:
Compounds described by embodiments of the present invention were assayed using a time dependent PMBC assay.

In a further assay the target is full-length human BTK (Homo sapiens (Human), UniProt Q06187). The assay can be described thus: BTK IC50 enzyme assay (microfluidic off-chip mobility shift kinase assay). In kind it is biochemical. The following applies: incubated for 90 min. at 27 C; read-out: Time Dependent BTK Enzyme Assay IC50. In a few lines:
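Off-chip microfluidic mobility shift assay on full-length human BTK; substrate-to-product conversion measured by charge/mass separation of phosphorylated peptide after reaction stop.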

full-length human BTK, sequence (Q06187 whole entry): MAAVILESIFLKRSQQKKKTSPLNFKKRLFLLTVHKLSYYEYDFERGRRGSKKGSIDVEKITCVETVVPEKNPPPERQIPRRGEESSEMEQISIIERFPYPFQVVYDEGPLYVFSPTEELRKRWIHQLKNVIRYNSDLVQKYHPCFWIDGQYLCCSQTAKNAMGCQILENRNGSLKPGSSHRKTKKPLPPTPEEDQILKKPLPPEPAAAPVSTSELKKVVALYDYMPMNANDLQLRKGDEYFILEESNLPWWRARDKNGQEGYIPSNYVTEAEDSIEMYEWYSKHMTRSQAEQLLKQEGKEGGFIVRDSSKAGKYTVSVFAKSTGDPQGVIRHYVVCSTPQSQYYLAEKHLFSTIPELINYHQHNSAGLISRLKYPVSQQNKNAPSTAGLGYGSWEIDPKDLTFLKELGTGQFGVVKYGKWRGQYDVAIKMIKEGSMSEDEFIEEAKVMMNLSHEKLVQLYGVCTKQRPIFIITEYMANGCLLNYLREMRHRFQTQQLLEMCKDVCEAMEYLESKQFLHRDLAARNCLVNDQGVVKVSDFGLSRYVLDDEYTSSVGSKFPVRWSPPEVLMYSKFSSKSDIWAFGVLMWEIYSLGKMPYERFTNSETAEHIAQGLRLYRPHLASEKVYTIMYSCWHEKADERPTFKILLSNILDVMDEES

By IC50 is commonly meant the concentration needed to halve the response being measured. `C=CS(=O)(=O)N1CCC(CNc2ncnc(N)c2-c2ccc(Oc3ccccc3)cc2)CC1` [A10, 5-(4-phenoxyphenyl)-N4-((1-(vinylsulfonyl)piperidin-4-yl)methyl)pyrimidine-4,6-diamine]: in the assay with PBMC, the half-maximal inhibitory concentration (IC50) was under 1000 nM. With `C=CC(=O)Nc1cccc(Oc2ncnc(N)c2-c2ccc(Oc3ccccc3)cc2)c1` [A242, N-(3-((6-amino-5-(4-phenoxyphenyl)pyrimidin-4-yl)oxy)phenyl)acrylamide], the figures for the IC50 at full-length human BTK and in the assay with PBMC were under 100 nM and under 1000 nM, respectively. Regarding `CC#CC(=O)N1CC[C@@H](Nc2ncnc(N)c2-c2ccc(Oc3ccccc3)cc2)C1` [A341, (R)-1-(3-((6-amino-5-(4-phenoxyphenyl)pyrimidin-4-yl)amino)pyrrolidin-1-yl)but-2-yn-1-one], the IC50 at full-length human BTK was under 100 nM; with PBMC, under 1000 nM. As to `CC#CC(=O)N1CCC(CNc2ncnc(N)c2-c2ccc(Oc3ccccc3)cc2)CC1` [A336, 1-(4-(((6-amino-5-(4-phenoxyphenyl)pyrimidin-4-yl)amino)methyl)piperidin-1-yl)but-2-yn-1-one], the IC50 at full-length human BTK was under 100 nM; in the assay on PBMC, under 1000 nM. Molecule `C=CC(=O)N1CC[C@H](CNc2ncnc(N)c2-c2ccc(Oc3ccccc3)cc2)C1` [A4, (R)-1-(3-(((6-amino-5-(4-phenoxyphenyl)pyrimidin-4-yl)amino)methyl)pyrrolidin-1-yl)prop-2-en-1-one] returned an IC50 in the assay on PBMC of under 1000 nM. On to `CN(C)C/C=C/C(=O)N1CC[C@@H](CNc2ncnc(N)c2-c2ccc(Oc3ccccc3)cc2)[C@H](O)C1` [A126, (E)-1-((3S,4S)-4-(((6-amino-5-(4-phenoxyphenyl)pyrimidin-4-yl)amino)methyl)-3-hydroxypiperidin-1-yl)-4-(dimethylamino)but-2-en-1-one], for which the values for the IC50 at full-length human BTK and in the assay with PBMC were under 100 nM and under 1000 nM, respectively. `C=CC(=O)N1CCC(CNc2ncnc(N)c2-c2ccc(Oc3ccccc3)cc2)C1` (stereo not shown) [A262, 1-(3-(((6-amino-5-(4-phenoxyphenyl)pyrimidin-4-yl)amino)methyl)pyrrolidin-1-yl)prop-2-en-1-one] displayed a half-maximal inhibitory concentration (IC50) in the assay on PBMC of under 1000 nM.

In the case of `C=CC(=O)N[C@@H]1CCC[C@H](Nc2ncnc(N)c2-c2ccc(Oc3ccccc3)cc2)C1` (relative stereo) [A51, N-(cis-3-((6-amino-5-(4-phenoxyphenyl)pyrimidin-4-yl)amino)cyclohexyl)acrylamide], the IC50 in the assay on PBMC was under 1000 nM. Molecule `C=CC(=O)N1CCC(CNc2ncnc(N)c2-c2ccc(Oc3cccc(F)c3)cc2)CC1` [A34, 1-(4-(((6-amino-5-(4-(3-fluorophenoxy)phenyl)pyrimidin-4-yl)amino)methyl)piperidin-1-yl)prop-2-en-1-one] came in with an IC50 in the assay with PBMC of under 1000 nM. The molecule `C=CC(=O)N1CC[C@@H](Nc2ncnc(N)c2-c2ccc(Oc3ccccc3)cc2)C1` [A1, (R)-1-(3-((6-amino-5-(4-phenoxyphenyl)pyrimidin-4-yl)amino)pyrrolidin-1-yl)prop-2-en-1-one] gave an IC50 in the assay on PBMC of under 1000 nM.

Take `C=CC(=O)N1CCC(CNc2ncnc(N)c2-c2ccc(Oc3ccccc3)nc2)CC1` [A168, 1-(4-(((6-amino-5-(6-phenoxypyridin-3-yl)pyrimidin-4-yl)amino)methyl)piperidin-1-yl)prop-2-en-1-one]: the IC50 at full-length human BTK and with PBMC was over 1000 nM each time. Turning to `C=CC(=O)N[C@H]1C[C@H](Nc2ncnc(N)c2-c2ccc(Oc3ccccc3)cc2)C1` [A117, N-(1,3-trans-3-((6-amino-5-(4-phenoxyphenyl)pyrimidin-4-yl)amino)cyclobutyl)acrylamide], the IC50 on full-length human BTK is under 100 nM; in the assay on PBMC, under 1000 nM. As to `CN(C)C/C=C/C(=O)N1CC2(CC(Nc3ncnc(N)c3-c3ccc(Oc4ccccc4)cc3)C2)C1` [A127, (E)-1-(6-((6-amino-5-(4-phenoxyphenyl)pyrimidin-4-yl)amino)-2-azaspiro[3.3]heptan-2-yl)-4-(dimethylamino)but-2-en-1-one], the IC50 at full-length human BTK is under 100 nM; in the assay on PBMC, under 1000 nM. As for `Nc1ncnc(NCC2CCN(C(=O)CCl)CC2)c1-c1ccc(Oc2ccccc2)cc1` [A45, 1-(4-(((6-amino-5-(4-phenoxyphenyl)pyrimidin-4-yl)amino)methyl)piperidin-1-yl)-2-chloroethanone], the half-maximal inhibitory concentration (IC50) with PBMC is under 1000 nM. `C=CC(=O)N1CC2(CC(Oc3ncnc(N)c3-c3cnn(Cc4ccccc4)c3)C2)C1` [A106, 1-(6-((6-amino-5-(1-benzyl-1H-pyrazol-4-yl)pyrimidin-4-yl)oxy)-2-azaspiro[3.3]heptan-2-yl)prop-2-en-1-one]: the figures for the IC50 at full-length human BTK and in the assay with PBMC were under 100 nM and over 1000 nM, respectively. Turning to `C=CC(=O)N1CCC[C@@H](Nc2ncnc(N)c2-c2ccc(Oc3ccccc3)cc2)C1` [A247, (R)-1-(3-((6-amino-5-(4-phenoxyphenyl)pyrimidin-4-yl)amino)piperidin-1-yl)prop-2-en-1-one], the IC50 with PBMC is under 1000 nM. On to `CN(C)C/C=C/C(=O)Nc1cccc(Oc2ncnc(N)c2-c2ccc(Oc3ccccc3)cc2)c1` [A252, (E)-N-(3-((6-amino-5-(4-phenoxyphenyl)pyrimidin-4-yl)oxy)phenyl)-4-(dimethylamino)but-2-enamide], for which the IC50 at full-length human BTK was under 100 nM; in the assay on PBMC, under 1000 nM.

The molecule `C=CC(=O)Nc1cccc(Oc2ncncc2-c2ccc(Oc3ccccc3)cc2)c1` [A255, N-(3-((5-(4-phenoxyphenyl)pyrimidin-4-yl)oxy)phenyl)acrylamide] returned an IC50 with PBMC of under 1000 nM. `C=CC(=O)N1CC[C@@H](COc2ncnc(N)c2-c2ccc(Oc3ccccc3)cc2)C1` [A38, (R)-1-(3-(((6-amino-5-(4-phenoxyphenyl)pyrimidin-4-yl)oxy)methyl)pyrrolidin-1-yl)prop-2-en-1-one]: the IC50 in the assay on PBMC is under 1000 nM. For the molecule `C=CC(=O)N1CCCC(Nc2ncnc(N)c2-c2ccc(Oc3ccccc3)cc2)C1` (stereo not shown) [A253, 1-(3-((6-amino-5-(4-phenoxyphenyl)pyrimidin-4-yl)amino)piperidin-1-yl)prop-2-en-1-one], in the assay with PBMC, the IC50 was under 1000 nM. The molecule `C=CC(=O)N[C@H]1CC[C@@H](Nc2ncnc(N)c2-c2ccc(Oc3ccccc3)cc2)CC1` [A266, N-((1s,4s)-4-((6-amino-5-(4-phenoxyphenyl)pyrimidin-4-yl)amino)cyclohexyl)acrylamide] yielded a half-inhibitory concentration (IC50) in the assay on PBMC of under 1000 nM.

`CC#CC(=O)N1CC[C@@H](CNc2ncnc(N)c2-c2ccc(Oc3ccccc3)cc2)[C@H](O)C1` [A215, 1-((3S,4S)-4-(((6-amino-5-(4-phenoxyphenyl)pyrimidin-4-yl)amino)methyl)-3-hydroxypiperidin-1-yl)but-2-yn-1-one]: the half-maximal inhibitory concentration (IC50) at full-length human BTK is under 100 nM. Consider `CN(C)C/C=C/C(=O)N1CCC(CNc2ncnc(N)c2-c2ccc(Oc3ccccc3)cc2)CC1` [A153, (E)-1-(4-(((6-amino-5-(4-phenoxyphenyl)pyrimidin-4-yl)amino)methyl)piperidin-1-yl)-4-(dimethylamino)but-2-en-1-one], for which the 50% inhibitory concentration (IC50) at full-length human BTK was under 1000 nM. As to `CN(C)C/C=C/C(=O)N1CC[C@@H](Nc2ncnc(N)c2-c2ccc(Oc3ccccc3)cc2)C1` [A73, (R,E)-1-(3-((6-amino-5-(4-phenoxyphenyl)pyrimidin-4-yl)amino)pyrrolidin-1-yl)-4-(dimethylamino)but-2-en-1-one], the IC50 at full-length human BTK was under 1000 nM. For `C=CC(=O)Nc1cccc(Oc2ncnc(N)c2-c2ccc(Oc3ccccc3)nc2)c1` [A268, N-(3-((6-amino-5-(6-phenoxypyridin-3-yl)pyrimidin-4-yl)oxy)phenyl)acrylamide], at full-length human BTK, the IC50 is under 100 nM.

On to `C=CC(=O)N1CC[C@@H](CNc2ncnc(N)c2-c2ccc(Oc3ccc(C#N)cc3)cc2)[C@H](O)C1` (racemic) [A199, 4-(4-(4-((((3S,4S)-1-acryloyl-3-hydroxypiperidin-4-yl)methyl)amino)-6-aminopyrimidin-5-yl)phenoxy)benzonitrile], for which, at full-length human BTK, the IC50 is under 1000 nM. With `C=CC(=O)N1CC2(CC(Nc3ncnc(N)c3-c3ccc(Oc4ccccc4)cc3)C2)C1` [A124, 1-(6-((6-amino-5-(4-phenoxyphenyl)pyrimidin-4-yl)amino)-2-azaspiro[3.3]heptan-2-yl)prop-2-en-1-one], in the assay on PBMC, the half-maximal inhibitory concentration (IC50) was under 1000 nM. The molecule `C=CC(=O)N1CCC(CNc2ncnc(N)c2-c2ccc(Oc3ccccc3)cc2)CC1` [A250, 1-(4-(((6-amino-5-(4-phenoxyphenyl)pyrimidin-4-yl)amino)methyl)piperidin-1-yl)prop-2-en-1-one] yielded an IC50 in the assay with PBMC of under 1000 nM. Turning to `Nc1ncnc(NCC2CCN(C(=O)/C=C/CN3CC(F)(F)C3)CC2)c1-c1ccc(Oc2ccccc2)cc1` [A219, (E)-1-(4-(((6-amino-5-(4-phenoxyphenyl)pyrimidin-4-yl)amino)methyl)piperidin-1-yl)-4-(3,3-difluoroazetidin-1-yl)but-2-en-1-one], on full-length human BTK, the 50% inhibitory concentration (IC50) was over 1000 nM. For the molecule `C=CC(=O)N1C[C@@H](F)C[C@H](Nc2ncnc(N)c2-c2ccc(Oc3ccccc3)cc2)C1` [A204, 1-((3S,5S)-3-((6-amino-5-(4-phenoxyphenyl)pyrimidin-4-yl)amino)-5-fluoropiperidin-1-yl)prop-2-en-1-one], the concentration for half-maximal inhibition (IC50) at full-length human BTK is under 100 nM. For `CC#CC(=O)NCc1cccc(-c2cnccc2Oc2ccc(Oc3ccccc3)cc2)c1` [A304, N-(3-(4-(4-phenoxyphenoxy)pyridin-3-yl)benzyl)but-2-ynamide], the IC50 on full-length human BTK was over 1000 nM. As to `NCc1ccc(-c2cnccc2Oc2ccc(Oc3ccccc3)cc2)cc1` [A315, (4-(4-(4-phenoxyphenoxy)pyridin-3-yl)phenyl)methanamine], the IC50 on full-length human BTK was over 1000 nM. Still for that read-out and setting: with `C=CC(=O)N1CCC(CNc2ncnc(N)c2-c2cc(F)c(Oc3ccccc3)cc2F)CC1` [A87, 1-(4-(((6-amino-5-(2,5-difluoro-4-phenoxyphenyl)pyrimidin-4-yl)amino)methyl)piperidin-1-yl)prop-2-en-1-one] the figure was under 1000 nM.

The molecule `C=CC(=O)N1CC[C@H](COc2ncnc(N)c2-c2ccc(Oc3ccccc3)cc2)C1` [A26, (S)-1-(3-(((6-amino-5-(4-phenoxyphenyl)pyrimidin-4-yl)oxy)methyl)pyrrolidin-1-yl)prop-2-en-1-one] displayed an IC50 in the assay with PBMC of under 1000 nM.
